Laboratory results published in article PMC7376644 (Pharmacology Research & Perspectives, 2020).

Tests used:
[1] = cited from earlier work; for Increase of exposure with KTZ: PZQ metabolism inhibited by KTZ
[2] = system: HLM; test: Intrinsic clearance, substrate depletion approach; type: in vitro ADME, human; settings: HLM, substrate depletion, well‐stirred model
Procedure: The generic conditions were previously described by Masimirembwa and co‐workers. ^24 , ^25 Each reaction mixture consisted of substrate incubated with appropriate enzyme, substrate, and NADPH in potassium phosphate buffer pH 7.4 in a final volume of 200 µL. The substrate was diluted to 40% ACN so that the percent organic component in the final solution was maintained at 1%. The reactions were quenched with 3 volumes of stop solution containing ACN and 0.8% formic acid at 0, 5, 10, 20, 30, 40, and 60 minutes. This was followed by centrifugation at 4500 g for 20 minutes. An aliquot (50 µL) supernatant was collected and diluted (1:1) in water prior to LC‐MS/MS analysis.
Each reaction was monitored over 7 time points.
(§1) The well‐stirred model was used to estimate the hepatic clearance (CLH) due to metabolism.

[3] = system: CYP3A4/5; test: CYP selective diagnostic inhibition studies in HLM, ketoconazole; type: in vitro ADME, human; settings: ketoconazole 10 µmol/L
Procedure: (§2) Reactions were carried out in triplicate in 96 well plates. Each reaction was measured at 2 time points, that is at 0 and 30 minutes. […] Furafylline, KTZ, ticlopidine, and quinidine were used as diagnostic inhibitors for CYP 1A2, 3A4/5, 2C19 and 2D6, respectively. The reactions were initiated by addition of NADPH after a pre‐incubation of 5 minutes at 37°C. All reactions were terminated by the addition of 150 µL ice‐cold ACN. Internal standard (0.2 µmol/L DPZ) was added to ACN prior to termination of the assay. This was followed by centrifugation at 4500 g for 20 minutes. An aliquot (50 µL) supernatant was collected and 5 µL was injected and analyzed by liquid chromatography/tandem mass spectrometry (LC/MS/MS). The percent effect of each inhibitor was the estimated contribution of the inhibited CYP calculated using the relationship below: %contribution=amount remaining with inhibitor‐amount remaining without inhibitor/amount remaining without inhibitor×100.

[4] = cited from earlier work
[5] = Simcyp prediction of total hepatic clearance; set-up: species or system human
Procedure: The clearance of the incubation mixture was expressed as μL/min/pmol for rCYP.
as §1

[6] = cited from earlier work; remark: listed apart in the source
[7] = system: CYP2D6; test: CYP selective diagnostic inhibition studies in HLM, quinidine; type: in vitro ADME, human; settings: quinidine 10 µmol/L
Procedure: as §2

[8] = molecular target: CYP2C19 (Homo sapiens, UniProt P33261); test: Enzyme kinetics of hydroxylated metabolites formation; type: in vitro ADME; set-up: purchased CYPEX CYP008; host or cells: Escherichia coli; settings: CYP2C19, formation of cis‐4‐OH‐PZQ
CYP2C19 (Homo sapiens, UniProt P33261), sequence (P33261 whole entry): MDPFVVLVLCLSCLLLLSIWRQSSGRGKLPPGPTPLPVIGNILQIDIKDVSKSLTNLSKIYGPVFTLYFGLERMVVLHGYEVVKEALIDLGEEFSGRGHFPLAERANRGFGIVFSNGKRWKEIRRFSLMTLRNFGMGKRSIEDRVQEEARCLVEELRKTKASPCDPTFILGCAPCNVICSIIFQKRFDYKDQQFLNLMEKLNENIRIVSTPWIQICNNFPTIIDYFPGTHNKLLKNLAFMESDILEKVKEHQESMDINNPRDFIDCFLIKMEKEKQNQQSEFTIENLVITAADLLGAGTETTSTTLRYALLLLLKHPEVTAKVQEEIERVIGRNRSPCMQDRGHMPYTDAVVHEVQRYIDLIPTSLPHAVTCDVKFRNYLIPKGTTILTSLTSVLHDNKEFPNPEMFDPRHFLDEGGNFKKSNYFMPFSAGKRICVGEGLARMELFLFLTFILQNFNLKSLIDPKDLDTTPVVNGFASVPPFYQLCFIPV
Procedure: (§3) The reactions were carried out in duplicate at each time point. Incubation conditions used for the determination of K M and V max were optimized for linearity with respect to time and protein concentrations. […] Metabolites were analyzed by LC‐MS/MS as described below. The K M and V max values of each marker substrate were determined using nonlinear least squares regression analysis in GraFit software (version 3.0, Erithacus Software Limited) and SigmaPlot Enzyme Kinetics Module for Windows 7.0 (SPSS, Inc).
as §1

[9] = system: CYP2C19; test: CYP selective diagnostic inhibition studies in HLM, ticlopidine; type: in vitro ADME, human; settings: ticlopidine 10 µmol/L
Procedure: as §2

[10] = molecular target: T1, CYP1A2 (Homo sapiens, UniProt P05177); test: Enzyme kinetics of hydroxylated metabolites formation; type: in vitro ADME; set-up: purchased CYPEX CYP001; host or cells: Escherichia coli; settings: CYP1A2, formation of cis‐4‐OH‐PZQ
T1 sequence (P05177 1-516): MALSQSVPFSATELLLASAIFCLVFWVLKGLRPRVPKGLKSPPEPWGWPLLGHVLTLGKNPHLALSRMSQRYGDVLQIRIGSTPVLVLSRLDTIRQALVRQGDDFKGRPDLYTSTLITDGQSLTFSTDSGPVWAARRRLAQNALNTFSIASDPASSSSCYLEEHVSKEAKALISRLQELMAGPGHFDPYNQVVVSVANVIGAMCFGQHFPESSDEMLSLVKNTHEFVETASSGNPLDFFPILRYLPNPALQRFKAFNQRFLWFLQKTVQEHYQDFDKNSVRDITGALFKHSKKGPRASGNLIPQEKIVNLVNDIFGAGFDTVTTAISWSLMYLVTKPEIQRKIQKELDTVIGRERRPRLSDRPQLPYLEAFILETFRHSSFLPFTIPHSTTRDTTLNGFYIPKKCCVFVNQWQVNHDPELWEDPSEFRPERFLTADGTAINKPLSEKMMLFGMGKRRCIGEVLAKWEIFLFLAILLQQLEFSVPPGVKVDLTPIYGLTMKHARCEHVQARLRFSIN
Procedure: as §3, §1

[11] = system: HLM; test: as above; type: in vitro ADME, human
Procedure: as §3, with “Inc). […]” for “Inc).”

[12] = system: CYP1A2; test: CYP selective diagnostic inhibition studies in HLM, furafylline; type: in vitro ADME, human; settings: furafylline 10 µmol/L
Procedure: as §2

| Predicted CLH [2] | Contribution of CYP3A4/5 [3] | Predicted total CLH (Simcyp) ([5]; metabolite formation assay) | Predicted total CLH (Simcyp) ([5]; substrate depletion assay) | Contribution of CYP2D6 [7] | CLuH,int [8] | Contribution of CYP2C19 [9] | CLuH,int [10] | K M [SD] ([11]; formation of X‐OH‐PZQ) | V max [SD] ([11]; formation of X‐OH‐PZQ) | K M [SD] ([11]; formation of cis‐4‐OH‐PZQ) | V max [SD] ([11]; formation of cis‐4‐OH‐PZQ) | Contribution of CYP1A2 [12] | Compound | Increase of exposure with KTZ [1] | Amount relative to cis 4‐OH PZQ in vivo ([1]; ref NLeya et al (19)) | Fraction unbound in plasma (fu) [4] | Oral dose eliminated renally (unchanged drug and metabolites) [6] | Systemic bioavailability [6] | Increase in bioavailability ([6]; co‐administration with cimetidine) | Drug excreted within 24 hours ([6]; in man) |
| --- | --- | --- | --- | --- | --- | --- | --- | --- | --- | --- | --- | --- | --- | --- | --- | --- | --- | --- | --- | --- |
|  |  |  |  |  |  |  |  |  |  |  |  |  | O=C(C1CCC(O)CC1)N1CC(=O)N2CCc3ccccc3C2C1 (stereo not drawn) [trans‐4‐OH PZQ, trans‐4‐hydroxy‐PZQ] | 67% | 30 times |  |  |  |  |  |
|  |  |  |  |  |  |  |  |  |  |  |  |  | O=C1CN(C(=O)[C@H]2CC[C@@H](O)CC2)CC2c3ccccc3CCN12 (stereo partly drawn) [cis‐4‐OH PZQ, cis‐4‐hydroxy‐PZQ] | 57% |  |  |  |  |  |  |
| 11.70 mL/min/kg | 97% | 11.44 mL/min/kg | 3.656 mL/min/kg | 35% | 4.600 mL/min/kg | 127% | 6.870 mL/min/kg | 118.6 [35.79] µmol/L | 11.10 [2.074] nmol/min/mg protein | 32.60 [3.982] µmol/L | 0.5978 [0.028] nmol/min/mg protein | −54% | O=C(C1CCCCC1)N1CC(=O)N2CCc3ccccc3C2C1 (stereo not drawn) [PZQ, praziquantel] |  |  | 0.2 | More than 80% | < 20% | 100% | more than 80% |
